Source: patent US9873719B2, “Salt and protease-resistance of antimicrobial peptide and the manufacture thereof” (priority 2013, dated 2018)
Square brackets hold non-standard residues; d marks the D form. Peptide text beside a SMILES is read from it. 2Nal = N[C@@H](Cc1ccc2ccccc2c1)C(=O)O

How the values were obtained:
[1] = test system: Eschericha coli (ATCC 25922), Staphylococcus aureus (ATCC 25923, 29213, and 19636), and Pseudomonas aeruginosa (ATCC 27853 and 9027); assay: Salt resistance test: antibacterial activity assay (NCCLS microdilution, MIC90); type: cell-based; conditions: for antimicrobial activity: at MHB medium or the high-salt condition, FIG. 1a/1b; for antimicrobial activity at 300 mM NaCl: FIG. 1b; for antimicrobial activity compared with reference peptide (S1 or S2-Nal): MHB medium or the high-salt condition, comparison in words
From the text: Antibacterial activity assay was used to determine the antimicrobial activity of S1, Nal-S1, S1-Nal-Nal, S1-Nal-Nal-Nal, S1-W, S1-W-W, S1-K-K-K, S2-Nal, S2-F-Nal, S2-Nal-Nal at different salt concentration. Eschericha coli (ATCC 25922), Staphylococcus aureus (ATCC 25923, 29213, and 19636), and Pseudomonas aeruginosa (ATCC 27853 and 9027) were used in the Example.
Microdilution method of National Committee for Clinical Laboratory Standards (NCCLS) was used to determine the minimal inhibition concentration (MIC). The MIC as used herein is a minimum inhibitory concentration required to inhibit the growth of 90% of organisms (MIC90).
In the Microdilution method, 1 μl of peptide solution (5,000 μg/ml to 78.1 μg/ml) and 99 μl of bacteria suspension were mixed and added into 96 wells plates. After 16 hours of incubation at 37° C., the optical density (O.D.) value at 600 nm was detected by ELISA (Thermo Max, Molecular Devices, Sunnyvale, Calif.). The Muller-Hinton Broth (MHB) medium without peptide and bacterial suspension were used as negative control and positive control, separately. The MIC value means a minimum inhibitory concentration required to inhibit the growth (equal or more than 90%) of bacteria.

in vitro = in vitro ADME, bovine
Protocol: Serum stability of the peptides was determined in 25% (v/v) aqueous bovine calf serum (HyClone, cat. AUE-34962). Firstly, peptides were dissolved in serum at a concentration of 150 μg/mL and incubated at 37° C. After 45 min on ice for precipitating serum proteins, the serum was centrifuged at 12,000 g for 10 min at 4° C., and then the supernatants were lyophilized. Remaining amount of the peptides was determined by RP-HPLC.

[2] = test system: human red blood cells (hRBCs)
Protocol: The hemolysis of peptides was determined by evaluating the effect of peptides on human red blood cells (hRBCs). hRBCs were obtained by washing the heparinized blood with PBS buffer three times, and stored at physiological saline with 10% phosphate buffer. The peptides were dissolved in PBS buffer, and then 50 μl of 10% (v/v) hRBCs was added to the PBS buffer at 37° C. for 1 hour of incubation (the final volume concentration of the hRBCs was 5%). After 1 hour of incubation, the hBRCs were centrifuged, and the hemolysis ratio was determined by detecting the absorbance values at 540 nm using a spectrophotometer. The hemolysis ratio of hRBCs without treatment was defined as 0%, and the hemolysis ratio of hRBCs treated with 1% Triton-X 100 was defined as 100%.

Row | Compound | antimicrobial activity [1] | degree of protection of the peptides from degradation in bovine calf serum (rank order) (in vitro) | antimicrobial activity at 300 mM NaCl [1] | antimicrobial activity compared with reference peptide (S1 or S2-Nal) [1] | hemolytic activity compared with other peptides [2] | remaining at 8 h, 150 μg/mL (in vitro; bovine, serum) [%]
1 | CC(=O)N[C@@H](CCCCN)C(=O)N[C@@H](CCCCN)C(=O)N[C@@H](Cc1ccc2ccccc2c1)C(=O)N[C@@H](CCCNC(=N)N)C(=O)N[C@@H](CCCCN)C(=O)N[C@@H](Cc1ccc2ccccc2c1)C(=O)N[C@@H](CC(C)C)C(=O)N[C@@H](C)C(=O)N[C@@H](CCCCN)C(=O)N[C@@H](CCCCN)C(N)=O [Nal-S1, KK-Nal-RK-Nal-LAKK] (Ac-KK[2Nal]RK[2Nal]LAKK-NH2; C-terminus assumed) | diminished | S1-Nal-Nal-Nal>S2-Nal-Nal=S2-Nal>S1-Nal-Nal>S1-Nal>S2-F-Nal>S1-KKK>S1>Nal-S1=S1-W>S1-WW | – | – | – | –
2 | Ac-KKWRKWLAKKW-NH2 (C-terminus assumed) [Peptide S1-W, KKWRKWLAKKW] | diminished | S1-Nal-Nal-Nal>S2-Nal-Nal=S2-Nal>S1-Nal-Nal>S1-Nal>S2-F-Nal>S1-KKK>S1>Nal-S1=S1-W>S1-WW | – | – | – | –
3 | Ac-KKWRKWLAKKWW-NH2 (C-terminus assumed) [Peptide S1-W-W, KKWRKWLAKKWW] | diminished | S1-Nal-Nal-Nal>S2-Nal-Nal=S2-Nal>S1-Nal-Nal>S1-Nal>S2-F-Nal>S1-KKK>S1>Nal-S1=S1-W>S1-WW | – | – | – | –
4 | CC(=O)N[C@@H](CCCCN)C(=O)N[C@@H](Cc1c[nH]c2ccccc12)C(=O)N[C@@H](Cc1c[nH]c2ccccc12)C(=O)N[C@@H](CCCCN)C(=O)N[C@@H](Cc1ccccc1)C(=O)N[C@@H](Cc1ccc2ccccc2c1)C(N)=O [Peptide S2-F-Nal, KWWK-F-Nal] (Ac-KWWKF[2Nal]-NH2; C-terminus assumed) | diminished | S1-Nal-Nal-Nal>S2-Nal-Nal=S2-Nal>S1-Nal-Nal>S1-Nal>S2-F-Nal>S1-KKK>S1>Nal-S1=S1-W>S1-WW | still retained their antimicrobial activities | higher than that of S2-Nal | – | –
5 | CC(=O)N[C@@H](CCCCN)C(=O)N[C@@H](CCCCN)C(=O)N[C@@H](Cc1c[nH]c2ccccc12)C(=O)N[C@@H](CCCNC(=N)N)C(=O)N[C@@H](CCCCN)C(=O)N[C@@H](Cc1c[nH]c2ccccc12)C(=O)N[C@@H](CC(C)C)C(=O)N[C@@H](C)C(=O)N[C@@H](CCCCN)C(=O)N[C@@H](CCCCN)C(=O)N[C@@H](Cc1ccc2ccccc2c1)C(=O)N[C@@H](Cc1ccc2ccccc2c1)C(=O)N[C@@H](Cc1ccc2ccccc2c1)C(N)=O [S1-Nal-Nal-Nal, KKWRKWLAKK-Nal-Nal-Nal] (Ac-KKWRKWLAKK[2Nal][2Nal][2Nal]-NH2; C-terminus assumed) | still retained the antimicrobial activities | S1-Nal-Nal-Nal>S2-Nal-Nal=S2-Nal>S1-Nal-Nal>S1-Nal>S2-F-Nal>S1-KKK>S1>Nal-S1=S1-W>S1-WW | – | better than S1 | higher hemolytic activity than other peptides | ~100
6 | Ac-KKWRKWLAKK-NH2 [Peptide S1, Ac-KKWRKWLAKK-NH2] | diminished | S1-Nal-Nal-Nal>S2-Nal-Nal=S2-Nal>S1-Nal-Nal>S1-Nal>S2-F-Nal>S1-KKK>S1>Nal-S1=S1-W>S1-WW | – | – | – | –
7 | CC(=O)N[C@@H](CCCCN)C(=O)N[C@@H](Cc1c[nH]c2ccccc12)C(=O)N[C@@H](Cc1c[nH]c2ccccc12)C(=O)N[C@@H](CCCCN)C(=O)N[C@@H](Cc1ccc2ccccc2c1)C(N)=O [Peptide S2-Nal, KWWK-Nal] (Ac-KWWK[2Nal]-NH2; C-terminus assumed) | diminished | S1-Nal-Nal-Nal>S2-Nal-Nal=S2-Nal>S1-Nal-Nal>S1-Nal>S2-F-Nal>S1-KKK>S1>Nal-S1=S1-W>S1-WW | – | – | – | –
8 | CC(=O)N[C@@H](CCCCN)C(=O)N[C@@H](Cc1c[nH]c2ccccc12)C(=O)N[C@@H](Cc1c[nH]c2ccccc12)C(=O)N[C@@H](CCCCN)C(=O)N[C@@H](Cc1ccc2ccccc2c1)C(=O)N[C@@H](Cc1ccc2ccccc2c1)C(N)=O [Peptide S2-Nal-Nal, KWWK-Nal-Nal] (Ac-KWWK[2Nal][2Nal]-NH2; C-terminus assumed) | diminished | S1-Nal-Nal-Nal>S2-Nal-Nal=S2-Nal>S1-Nal-Nal>S1-Nal>S2-F-Nal>S1-KKK>S1>Nal-S1=S1-W>S1-WW | still retained their antimicrobial activities | higher than that of S2-Nal | – | –
9 | Ac-KKWRKWLAKKKKK-NH2 (C-terminus assumed) [Peptide S1-K-K-K, KKWRKWLAKKKKK] | diminished | S1-Nal-Nal-Nal>S2-Nal-Nal=S2-Nal>S1-Nal-Nal>S1-Nal>S2-F-Nal>S1-KKK>S1>Nal-S1=S1-W>S1-WW | – | – | – | –
10 | CC(=O)N[C@@H](CCCCN)C(=O)N[C@@H](CCCCN)C(=O)N[C@@H](Cc1c[nH]c2ccccc12)C(=O)N[C@@H](CCCNC(=N)N)C(=O)N[C@@H](CCCCN)C(=O)N[C@@H](Cc1c[nH]c2ccccc12)C(=O)N[C@@H](CC(C)C)C(=O)N[C@@H](C)C(=O)N[C@@H](CCCCN)C(=O)N[C@@H](CCCCN)C(=O)N[C@@H](Cc1ccc2ccccc2c1)C(N)=O [Peptide S1-Nal, KKWRKWLAKK-Nal] (Ac-KKWRKWLAKK[2Nal]-NH2; C-terminus assumed) | – | S1-Nal-Nal-Nal>S2-Nal-Nal=S2-Nal>S1-Nal-Nal>S1-Nal>S2-F-Nal>S1-KKK>S1>Nal-S1=S1-W>S1-WW | – | better than S1 | – | –
11 | CC(=O)N[C@@H](CCCCN)C(=O)N[C@@H](CCCCN)C(=O)N[C@@H](Cc1c[nH]c2ccccc12)C(=O)N[C@@H](CCCNC(=N)N)C(=O)N[C@@H](CCCCN)C(=O)N[C@@H](Cc1c[nH]c2ccccc12)C(=O)N[C@@H](CC(C)C)C(=O)N[C@@H](C)C(=O)N[C@@H](CCCCN)C(=O)N[C@@H](CCCCN)C(=O)N[C@@H](Cc1ccc2ccccc2c1)C(=O)N[C@@H](Cc1ccc2ccccc2c1)C(N)=O [Peptide S1-Nal-Nal, KKWRKWLAKK-Nal-Nal] (Ac-KKWRKWLAKK[2Nal][2Nal]-NH2; C-terminus assumed) | still retained the antimicrobial activities | S1-Nal-Nal-Nal>S2-Nal-Nal=S2-Nal>S1-Nal-Nal>S1-Nal>S2-F-Nal>S1-KKK>S1>Nal-S1=S1-W>S1-WW | – | better than S1 | higher hemolytic activity than other peptides | –
